According to patent US11066414B2, “Cot modulators and methods of use thereof” (Gilead Sciences, Inc., priority 2015, dated 2021):
Where two headings read alike, the source gives them in different places.

Tested on: TNFα
Test: Cot Monocyte TNFα Cell Based Assay
[1] = Homo sapiens, Monocyte, read-out: EC50 TNF, LPS-stimulated human monocytes, TNFα

| SMILES | EC50 [1] | EC50 (read-out: EC50 TNF, LPS-stimulated human monocytes, TNFα) |
| --- | --- | --- |
| CC(C)(C)CNc1c(C#N)cnc2c(Br)cc(N[C@H](c3cn(C4(C(F)(F)F)CC4)nn3)c3cccc4ncsc34)cc12 [Example 439, (S)-6-((benzo[d]thiazol-7-yl(1-(1-(trifluoromethyl)cyclopropyl)-1H-1,2,3-triazol-4-yl)methyl)amino)-8-bromo-4-(neopentylamino)quinoline-3-carbonitrile] | 299 nM | – |
| CC(C)(C)CNc1c(C#N)cnc2c(C#N)cc(N[C@H](c3cn(C4(CF)CC4)nn3)c3cccc4ncsc34)cc12 [Example 441, (S)-6-((benzo[d]thiazol-7-yl(1-(1-(fluoromethyl)cyclopropyl)-1H-1,2,3-triazol-4-yl)methyl)amino)-4-(neopentylamino)quinoline-3,8-dicarbonitrile] | 26 nM | – |
| Cn1ccc2c([C@H](Nc3cc(Cl)c4ncc(C#N)c(NCC(C)(C)C)c4c3)c3cn(C4CC4)nn3)ccnc21 [Example 519, (S)-8-chloro-6-(((1-cyclopropyl-1H-1,2,3-triazol-4-yl)(1-methyl-1H-pyrrolo[2,3-b]pyridin-4-yl)methyl)amino)-4-(neopentylamino)quinoline-3-carbonitrile] | 158 nM | – |
| Cn1ncc2c([C@H](Nc3cc(Cl)c4ncc(C#N)c(NCC(C)(C)C)c4c3)c3cn(C4(C(F)(F)F)CC4)nn3)cccc21 [Example 543, (S)-8-chloro-6-(((1-methyl-1H-indazol-4-yl)(1-(1-(trifluoromethyl)cyclopropyl)-1H-1,2,3-triazol-4-yl)methyl)amino)-4-(neopentylamino)quinoline-3-carbonitrile] | 422 nM | – |
| CC(C)(C)CNc1c(C#N)cnc2c(C#N)cc(N[C@H](c3cn(C4(C(F)F)CC4)nn3)c3cccc4cnccc34)cc12 [Example 551] | – | 27 nM |
| Cc1nc(F)ccc1[C@H](Nc1cc(Cl)c2ncc(C#N)c(N[C@H](C)C(C)(C)C)c2c1)c1cn(C2(C(F)(F)F)CC2)nn1 [Example 582, 8-chloro-4-(((R)-3,3-dimethylbutan-2-yl)amino)-6-(((S)-(6-fluoro-2-methylpyridin-3-yl)(1-(1-(trifluoromethyl)cyclopropyl)-1H-1,2,3-triazol-4-yl)methyl)amino)quinoline-3-carbonitrile] | 184 nM | – |
| Cc1nc(F)ccc1[C@H](Nc1cc(C#N)c2ncc(C#N)c(NC3CCCCC3)c2c1)c1cn(C2(C(F)(F)F)CC2)nn1 [Example 585, (S)-4-(cyclohexylamino)-6-(((6-fluoro-2-methylpyridin-3-yl)(1-(1-(trifluoromethyl)-cyclopropyl)-1H-1,2,3-triazol-4-yl)methyl)amino)quinoline-3,8-dicarbonitrile] | 838 nM | – |
| Cc1nc(F)ccc1[C@H](Nc1cc(C#N)c2ncc(C#N)c(NCC(C)(C)C)c2c1)c1cn(C(C)(C)C)nn1 [Example 589, (S)-6-(((1-(tert-butyl)-1H-1,2,3-triazol-4-yl)(6-fluoro-2-methylpyridin-3-yl)methyl)amino)-4-(neopentylamino)quinoline-3,8-dicarbonitrile] | 34 nM | – |
| CC(C)(C)CNc1c(C#N)cnc2c(Cl)cc(N[C@H](c3cn(C4(C(F)(F)F)CC4)nn3)c3cccn4cncc34)cc12 [Example 599, (S)-8-chloro-6-((imidazo[1,5-a]pyridin-8-yl(1-(1-(trifluoromethyl)cyclopropyl)-1H-1,2,3-triazol-4-yl)methyl)amino)-4-(neopentylamino)quinoline-3-carbonitrile] | 316 nM | – |
| Cc1nc(F)ccc1[C@H](Nc1cc(C#N)c2ncc(C#N)c(N[C@@H](c3ccccc3)C3CC3)c2c1)c1cn(C2(C(F)(F)F)CC2)nn1 [Example 613, 4-(((R)-cyclopropyl(phenyl)methyl)amino)-6-(((S)-(6-fluoro-2-methylpyridin-3-yl)(1-(1-(trifluoromethyl)cyclopropyl)-1H-1,2,3-triazol-4-yl)methyl)amino)quinoline-3,8-dicarbonitrile] | 144 nM | – |
| CC(C)(C)CNc1c(C#N)cnc2c(Cl)cc(N[C@H](c3cn(C4(C(F)(F)F)CC4)nn3)c3ccc(F)c4cnccc34)cc12 [Example 616, (S)-8-chloro-6-(((8-fluoroisoquinolin-5-yl)(1-(1-(trifluoromethyl)cyclopropyl)-1H-1,2,3-triazol-4-yl)methyl)amino)-4-(neopentylamino)quinoline-3-carbonitrile] | 104 nM | – |
| COc1ccnc2cccc([C@H](Nc3cc(Cl)c4ncc(C#N)c(NCC(C)(C)C)c4c3)c3cn(C4(C(F)(F)F)CC4)nn3)c12 [Example 632, (S)-8-chloro-6-(((4-methoxyquinolin-5-yl)(1-(1-(trifluoromethyl)cyclopropyl)-1H-1,2,3-triazol-4-yl)methyl)amino)-4-(neopentylamino)quinoline-3-carbonitrile] | 1000 nM | – |

More lines, in order of falling EC50 [1], values ahead:

| EC50 [1] | EC50 (read-out: EC50 TNF, LPS-stimulated human monocytes, TNFα) | SMILES |
| --- | --- | --- |
| 1000 nM | – | Cc1ncoc1[C@H](Nc1cc(Cl)c2ncc(C#N)c(NCC(C)(C)C)c2c1)c1cn(C2(C(F)F)CC2)nn1 [Example 630, (R)-8-chloro-6-(((1-(1-(difluoromethyl)cyclopropyl)-1H-1,2,3-triazol-4-yl)(4-methyloxazol-5-yl)methyl)amino)-4-(neopentylamino)quinoline-3-carbonitrile] |
| 588 nM | – | Cc1nc(F)ccc1[C@H](Nc1cc(C#N)c2ncc(C#N)c(NCC(C)(C)C#N)c2c1)c1cn(C2(C(F)(F)F)CC2)nn1 [Example 615, (S)-4-((2-cyano-2-methylpropyl)amino)-6-(((6-fluoro-2-methylpyridin-3-yl)(1-(1-(trifluoromethyl)cyclopropyl)-1H-1,2,3-triazol-4-yl)methyl)amino)quinoline-3,8-dicarbonitrile] |
| 133 nM | – | Cc1nc(F)ccc1[C@H](Nc1cc(Cl)c2ncc(C#N)c(NCC(C)(C)C)c2c1)c1nnn(C2CC2)c1C [Example 647, (S)-8-chloro-6-(((1-cyclopropyl-5-methyl-1H-1,2,3-triazol-4-yl)(6-fluoro-2-methylpyridin-3-yl)methyl)amino)-4-(neopentylamino)quinoline-3-carbonitrile] |
| 88 nM | – | Cc1nc(F)ccc1[C@H](Nc1cc(C#N)c2ncc(C#N)c(NCC(C)(C)C)c2c1)c1cn(C2(C(F)(F)F)COC2)nn1 [Example 644, (S)-6-(((6-fluoro-2-methylpyridin-3-yl)(1-(3-(trifluoromethyl)oxetan-3-yl)-1H-1,2,3-triazol-4-yl)methyl)amino)-4-(neopentylamino)quinoline-3,8-dicarbonitrile] |
| 73 nM | – | Cn1ncc2cccc([C@H](Nc3cc(C#N)c4ncc(C#N)c(NCC(C)(C)C)c4c3)c3cn(C4(C(F)(F)F)CC4)nn3)c21 [Example 526, (S)-6-(((1-methyl-1H-indazol-7-yl)(1-(1-(trifluoromethyl)cyclopropyl)-1H-1,2,3-triazol-4-yl)methyl)amino)-4-(neopentylamino)quinoline-3,8-dicarbonitrile] |
| 29 nM | – | Cc1nc(F)ccc1[C@H](Nc1cc(F)c2ncc(C#N)c(NCC(C)(C)C)c2c1)c1cn(C2(C#N)CC2)nn1 [Example 485, (S)-6-(((1-(1-cyanocyclopropyl)-1H-1,2,3-triazol-4-yl)(6-fluoro-2-methylpyridin-3-yl)methyl)amino)-8-fluoro-4-(neopentyl-amino)quinoline-3-carbonitrile] |
| 21 nM | – | Cc1nc(F)ccc1[C@H](Nc1cc(Cl)c2ncc(C#N)c(N[C@H](CCC#N)c3ccccc3)c2c1)c1cn(C2CC2)nn1 [Example 431, 8-chloro-4-(((R)-3-cyano-1-phenyl-propyl)amino)-6-(((S)-(1-cyclopropyl-1H-1,2,3-triazol-4-yl)(6-fluoro-2-methylpyridin-3-yl)methyl)amino)-quinoline-3-carbonitrile] |
